Laboratory results reported in patent US20210238124A1, “ACETYLATED PRODRUGS FOR DELIVERY ACROSS THE BLOOD-BRAIN BARRIER” (THE GENERAL HOSPITAL CORPORATION, priority 2018, published 2021).

Assays:
Aβ42 fibers = Aβ42 fibers (Homo sapiens, UniProt P05067); conditions: cited from earlier work
[1] = Biodistribution of 4-[^18F]-fluoroinositol in normal rats; format: in vivo; conditions: FIG. 1
[2] = Biodistribution / brain uptake of ^18F-scyllo-inositols 1 and 2; format: in vivo, rats
Description: Brain uptake (% DPG) at 5, 30, and 60 min for the acetylated derivative 1 was 0.8%, 0.9%, and 0.26% (See FIG. 4).
Inositol is transported across the blood-brain barrier by a low capacity, saturable system.

[3] = rat, in vivo
Description: Here, imaging is performed in normal rats and rats pretreated with mannitol.
PET imaging was performed in a rats using a Siemens Focus 220 scanner with Neurological CT scanner. [^18F]-fluoromannitol (1.2 mCi) was injected via tail-vein and imaged in list mode for one hour.
In a separate experiment, a 25% solution of D-mannitol was i.v. injected 30 min prior to tracer injection.

large intestinal cancer = conditions: rats fed prior to carcinogen treatment; cited from earlier work

Chain of Aβ42 fibers (P05067 672-713 limits assumed): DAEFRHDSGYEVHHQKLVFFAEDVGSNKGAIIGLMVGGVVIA

## OC1C(O)C(O)C(F)C(O)C1O (centres unmarked) [1-deoxy-1-fluoro-scyllo-inositol]
Aβ42 fibers
  formation of Aβ42 fibers: significantly inhibit

## OC1C(O)C(O)C(F)C(O)C1O (centres unmarked) [4-[^18F]-fluoroinositol, 4-deoxy-4-fluoro-myo-inositol]
[1]
  defluorination: minimal
  tissue accumulation (biodistribution): high and fast accumulation in kidney and bladder without any other specific tissue accumulation

## CC(=O)OC1C([18F])C(OC(C)=O)C(OC(C)=O)C(OC(C)=O)C1OC(C)=O (centres unmarked) [Compound 1, 1-deoxy-1-[^18F]-fluoro-2,3,4,5,6-penta-O-acetyl-scyllo-inositol]
[2]; rat, in vivo
  brain clearance: significant brain clearance

## OC1C(O)C(O)C([18F])C(O)C1O (centres unmarked) [Compound 2, 1-deoxy-1-[^18F]-fluoro-scyllo-inositol]
[2]; 5 min
  Brain uptake (% DPG): 0.18 % DPG
[2]; 30 min
  Brain uptake (% DPG): 0.30 % DPG
[2]; 60 min
  Brain uptake (% DPG): 0.36 % DPG
[2]; FIG. 5
  site of majority of the activity: majority of the activity accumulating in kidneys

## OC[C@@H](O)[C@@H](O)[C@H](O)[C@H](O)C[18F] [[^18F]-Fluoromannitol, 1-deoxy-1-[^18F]-fluoro-D-mannitol]
[3]
  Brain accumulation (% injected dose): 0.1 % ID
  Brain activity (% injected dose): 0.08 % ID
  brain uptake in the images: high brain uptake
  early brain kinetics: very fast flow related brain accumulation and washout

## O[C@H]1[C@H](O)[C@@H](O)[C@H](O)[C@@H](O)[C@@H]1O [scyllo-inositol]
Aβ42 fibers
  formation of Aβ42 fibers: inhibiting Aβ42 fiber formation

## O=P([O-])(O)OC1C(OP(=O)(O)O)C(OP(=O)(O)O)C(OP(=O)(O)O)C(OP(=O)(O)O)C1OP(=O)(O)O.[Na+] (centres unmarked) [sodium inositol hexaphosphate]
Large intestinal cancer
  decrease in large intestinal cancer compared to the control carcinogen group: 35%
